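Exposure lasted 48 hours, with cells grown in 96-well plates and compounds tested at five concentrations. TGI marks complete inhibition of growth.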
Assays:
Test in all cases: NCI-60 cell line screen, 48 h
[1] = tested on: PC-3 prostate
[2] = tested on: SF-268 CNS
[3] = tested on: SK-OV-3 ovarian
[4] = tested on: SN12C renal
[5] = tested on: M14 melanoma
[6] = tested on: HS 578T breast
[7] = tested on: RPMI-8226 leukemia
[8] = tested on: RXF 393 renal
[9] = tested on: DU-145 prostate
[10] = tested on: KM12 colon
[11] = tested on: A549 NSCLC
[12] = tested on: EKVX NSCLC
[13] = tested on: OVCAR-3 ovarian
[14] = tested on: LOX IMVI melanoma
[15] = tested on: UACC-62 melanoma
[16] = tested on: HL-60(TB) leukemia
[17] = tested on: NCI-H460 lung
[18] = tested on: SW-620 colon
[19] = tested on: SK-MEL-5 melanoma
[20] = tested on: MOLT-4 leukemia
[21] = tested on: OVCAR-4 ovarian
[22] = tested on: SK-MEL-2 melanoma
[23] = tested on: NCI-H522 lung
[24] = tested on: NCI/ADR-RES ovarian
[25] = tested on: TK-10 renal
[26] = tested on: OVCAR-8 ovarian
[27] = tested on: IGROV1 ovarian
[28] = tested on: K-562 leukemia
[29] = tested on: MDA-MB-231 breast
[30] = tested on: HCT-15 colon
[31] = tested on: BT-549 breast
[32] = tested on: COLO 205 colon
[33] = tested on: U251 CNS
[34] = tested on: NCI-H23 lung
[35] = tested on: MALME-3M melanoma
[36] = tested on: OVCAR-5 ovarian
[37] = tested on: 786-0 renal
[38] = tested on: CCRF-CEM leukemia
[39] = tested on: SK-MEL-28 melanoma
[40] = tested on: HOP-62 NSCLC
[41] = tested on: SNB-75 CNS
[42] = tested on: CAKI-1 renal
[43] = tested on: MDA-N
[44] = tested on: HCT-116 colon
[45] = tested on: MDA-MB-435
[46] = tested on: HT29 colon
[47] = tested on: ACHN renal
[48] = tested on: SF-295 CNS
[49] = tested on: SF-539 CNS
[50] = tested on: MCF7 breast
[51] = tested on: NCI-H226 lung
[52] = tested on: SNB-19 CNS
[53] = tested on: HCC-2998 colon
[54] = tested on: T-47D breast
[55] = tested on: UACC-257 melanoma
[56] = tested on: SR leukemia
[57] = tested on: HOP-92 NSCLC
[58] = tested on: UO-31 renal

Measured: TGI

O=C(O)CC(O)(C(=O)O)C(O)C(=O)O (stereo not given)
> 1000 µM: [1] | [2] | [3] | [4] | [5] | [7] | [8] | [9] | [10] | [11] | [12] | [13] | [14] | [15] | [16] | [17] | [18] | [19] | [20] | [21] | [22] | [23] | [24] | [25] | [26] | [27] | [28] | [29] | [30] | [31] | [32] | [33] | [34] | [35] | [36] | [37] | [38] | [39] | [40] | [41] | [42] | [43] | [44] | [45] | [46] | [47] | [48] | [49] | [50] | [51] | [52] | [53] | [54] | [55]
867 µM: [6]

CC(/C=N/NC1=NCCCN1)=N\NC1=NCCCN1
> 100 µM: [1] | [2] | [3] | [4] | [5] | [6] | [7] | [8] | [10] | [11] | [12] | [13] | [14] | [15] | [17] | [18] | [19] | [20] | [21] | [23] | [24] | [25] | [26] | [27] | [28] | [56] | [29] | [30] | [31] | [32] | [33] | [34] | [35] | [36] | [37] | [38] | [39] | [40] | [41] | [42] | [43] | [44] | [45] | [46] | [47] | [48] | [57] | [49] | [50] | [51] | [52] | [53] | [54] | [58] | [55]
